Test results as given in the OligoGym collection.
“And” between values parts separate entries of the source, which are not always exact repeats. Equal values may be shown once. After the bases stand the sugars from the 5' end (letter, count) and the backbone: PS all phosphorothioate, else s phosphorothioate and o phosphodiester by linkage. Methylation of C is not given here. e = 2'-O-(2-methoxyethyl) (MOE); l = locked nucleic acid (LNA); k = constrained ethyl (cEt); d = 2'-deoxy (DNA)

Columns and labels:
ANGPTL2 = conditions: ASO
KRAS = conditions: ASO

| Sequence | target mRNA inhibition (ANGPTL2; 5 µM) [%] | target mRNA inhibition (ANGPTL2; 25 µM) [%] | target mRNA inhibition (KRAS; A431, 2 µM) | further results |
| --- | --- | --- | --- | --- |
| GTTCGTCAGCCAGTAA (sugars l2 d11 l3, PS) | 46.5 | 75.5 |  |  |
| GTGGGCAAGAGGGATGC (sugars l1 d14 l2, PS) | 35 | 32.2 |  |  |
| TAATTCACCGCCAAATTAC (sugars l3 d13 l3, PS) | 27.6 | 36.8 |  |  |
| GTTATGCCCATTTCTAGG (sugars l1 d15 l2, PS) | 47.7 | 58.8 |  |  |
| GTTGATAGTTTATCTCCT (sugars l1 d14 l3, PS) | 64.1 | 76.7 |  |  |
| CAAAGGCATTTCAGTTCC (sugars l1 d14 l3, PS) | 56.8 | 70.4 |  |  |
| TTTCTAAACTCTCACCCTG (sugars l1 d15 l3, PS) | 26.4 | 25.1 |  |  |
| ACCCTCCATCCTTCACC (sugars l2 d13 l2, PS) | 34.7 | 54.5 |  |  |
| CAGGCCAACACTAACTC (sugars l1 d12 l4, PS) | 66.9 | 82.5 |  |  |
| TTGATGATGCGGTTGTAG (sugars l3 d13 l2, PS) | 70.7 | 77.8 |  |  |
| CCAACACTAACTCGGC (sugars l2 d12 l2, PS) | 36 | 54.3 |  |  |
| CTAGACATACCATCTA (sugars l3 d10 l3, PS) | 34.9 | 40 |  |  |
| ATTTTGAGATTCCCCCAAA (sugars l1 d14 l4, PS) | 7.37 | -8.2 |  |  |
| CCATTTTGAGATTCCCCCAA (sugars l3 d15 l2, PS) | 44.4 | 43.9 |  |  |
| GTTGATAGTTTATCTCC (sugars l3 d12 l2, PS) | 87.4 | 88.8 |  |  |
| AAGAAGTTAACAGAGCCATC (sugars l1 d15 l4, PS) | 42.1 | 45.8 |  |  |
| CTCCAAATTAAATCCG (sugars l4 d9 l3, PS) | 22.4 | 32.3 |  |  |
| CAGCCAGTAAATGTTCTCCA (sugars l1 d17 l2, PS) | 42.8 | 38 |  |  |
| GCTCTCATAATCCTAC (sugars l2 d11 l3, PS) | 59.2 | 65.4 |  |  |
| TGCTGTGAAACTCTCT (sugars kkddddddddddkeke, PS) |  |  | 30% |  |
| CAGTGTGACTCAGTTA (sugars kkddddddddddkeke, PS) |  |  | 51% |  |
| AAATTAGTGATTAGGT (sugars k3 d10 k3, PS) |  |  | 5% |  |
| CCAGAGCTAATCAGTGG (sugars l2 d13 l2, PS) | 39.4 | 48.8 |  |  |

| Sequence | target mRNA inhibition (ANGPTL2; 5 µM) [%] | target mRNA inhibition (ANGPTL2; 25 µM) [%] | target mRNA inhibition (KRAS; A431, 2 µM) | further results |
| --- | --- | --- | --- | --- |
| TTATGCACTCGGTTCTCC (sugars l1 d15 l2, PS) | 30.6 | 46.6 |  |  |
| TAATGTCACAAGCAGA (sugars k3 d10 k3, PS) |  |  | 52% |  |
| GGTAAAAGCTAACAGT (sugars k3 d10 k3, PS) |  |  | 49% |  |
| AGTGTGACTCAGTTAA (sugars kkdddddddddkdkdk, PS) |  |  | 38% |  |
| CTTGAAAAGTGTTTAT (sugars k3 d10 k3, PS) |  |  | 0% |  |
| AATTAATGTCTTGGCA (sugars k3 d10 k3, PS) |  |  | 12% |  |
| GTCCAGTGATACTTTC (sugars kddddddddddkekek, PS) |  |  | 36% |  |
| ACAGATTGTGCTGAGC (sugars k3 d10 k3, PS) |  |  | 46% |  |
| AGATGGTGTAACATAG (sugars k3 d10 k3, PS) |  |  | 39% |  |
| CCATTTATGTGACTAG (sugars kkddddddddkekekk, PS) |  |  | 0% |  |
| TTAATTACTTATGCAG (sugars k3 d10 k3, PS) |  |  | 32% |  |
| GTGTGACTCAGTTAAA (sugars kddddddddddkekek, PS) |  |  | 30% |  |
| AACCATTCAAAGTTCA (sugars k3 d10 k3, PS) |  |  | 35% |  |
| TGTTTATGCAATGTTA (sugars kkdddddddddkdkdk, PS) |  |  | 46% |  |
| AAAAGCTATTAGGAGT (sugars k3 d10 k3, PS) |  |  | 25% |  |
| AGGAGTCTTTATAGTA (sugars k3 d10 k3, PS) |  |  | 66% and 65% and 57% | target mRNA inhibition (KRAS; A431, 0.185 µM): 14%; target mRNA inhibition (KRAS; A431, 0.556 µM): 42%; target mRNA inhibition (KRAS; A431, 1.667 µM): 58%; target mRNA inhibition (KRAS; A431, 5 µM): 77% |
| AGGAGTCTTTATAGTA (sugars kkddddddddkekekk, PS) |  |  | 21% |  |
| ATTGTGCTGAGCTTGA (sugars kdddddddddkekeke, PS) |  |  | 18% |  |
| TGTGCAATGGTGACAA (sugars k3 d10 k3, PS) |  |  | 28% |  |
| GTAAAAGCTAACAGTC (sugars k3 d10 k3, PS) |  |  | 21% |  |
| TATAATAATCCCCATT (sugars k3 d10 k3, PS) |  |  | 7% |  |
| AGATTGTGCTGAGCTT (sugars kddddddddddkekek, PS) |  |  | 7% |  |
